One substance from US9593305B2, “Differentiation of pluripotent stem cells” (Janssen Biotech, Inc., priority 2008, dated 2017) can be followed below.

The assay deals with H1 human embryonic stem cells. The assay is described as follows: Secondary assay: panel of compounds with growth factor combinations and muscimol, no activin A (Example 6, Table 5). Type of assay: cell-based. Here is the method:
Clusters of H1 human embryonic stem cells were grown on reduced growth factor […]™ (Invitrogen; Cat #356231)-coated tissue culture plastic. Cells were passaged using collagenase (Invitrogen; Cat #17104-019) treatment and gentle scraping, washed to remove residual enzyme, and plated with even dispersal at a ratio of 1:1 (surface area) on reduced growth factor […]™-coated 96-well black plates (Packard ViewPlates; PerkinElmer; Cat #6005182) using volumes of 100 μl/well. Cells were allowed to attach as clusters and then recover log phase growth over a 1 to 3 day period, feeding daily with MEF-conditioned medium supplemented with 8 ng/ml bFGF (R&D Systems; Cat #233-FB). Plates were maintained at 37° C., 5% CO2 in a humidified box throughout the duration of the assay. Stocks of growth factors purchased from R&D Systems were EGF (Cat #236-EG), FGF4 (Cat #235-F4), PDGF-A (Cat #221-AA), PDGF-D (Cat #1159-SB), PDGF-A/B (Cat #222-AB), and VEGF (Cat #293-VE). […] All growth factors were solubilized in PBS with 0.1% BSA (Sigma; Cat #A7888) and stored frozen at −80° C. […] Cat #D2650) and stored frozen at −80° C. Compounds were available as 5 mM stocks in 96-well plate format, solubilized in 100% DMSO and stored at −80° C. Compounds were further diluted to an intermediate concentration of 0.2 mM in 50 mM HEPES (Invitrogen; Cat #15630-080), 20% DMSO and stored at 4° C. All growth factors and inhibitors were prepared in a deep well, 96-well polypropylene plate, diluted to 5× intermediate stocks in DMEM:F12 base medium at the beginning of assay and stored at 4° C. A secondary screening assay was conducted, testing in triplicate and feeding on alternate days over the four-day assay timeframe. Assays were initiated by aspirating culture medium from each well followed by three washes in PBS to remove residual growth factors and serum. Test volumes of 80 μl per well were added back containing DMEM:F12 base medium (Invitrogen; Cat #11330-032) supplemented with 0.625% FCS (HyClone; […] All remaining growth factors were tested at a final assay concentration of 50 ng/ml (EGF, FGF4, PDGF-A, PDGF-A/B, VEGF). […] At the conclusion of four-days of culture, assay plates were washed twice with PBS, fixed with 4% paraformaldehyde (Alexis Biochemical; Cat #ALX-350-011) at room temperature for 20 minutes, then washed three times with PBS and permeabilized with 0.5% Triton X-100 (Sigma; Cat #T8760-2) for 20 minutes at room temperature. Cells were washed again three times with PBS and blocked with 4% chicken serum (Invitrogen; Cat #16110082) in PBS for 30 minutes at room temperature. Primary antibody (goat anti-human SOX17; R&D Systems; cat #AF1924) was diluted 1:100 in 4% chicken serum and added to each well for one hour at room temperature. Alexa Fluor 488 conjugated secondary antibody (chicken anti-goat IgG; Molecular Probes; Cat #AZ1467) was diluted 1:200 in PBS and added to each sample well after washing three times with PBS. To counterstain nuclei, 4 μg/ml Hoechst 33342 (Invitrogen; Cat #H3570) was added for ten minutes at room temperature. Plates were washed once with PBS and left in 100 μl/well PBS for imaging. Imaging was performed using an IN Cell Analyzer 1000 (GE Healthcare) utilizing the 51008bs dichroic for cells stained with Hoechst 33342 and Alexa Fluor 488. Exposure times were optimized from positive control wells and from untreated negative control wells stained with secondary antibody alone. Images from 15 fields per well were acquired to compensate for any cell loss during the bioassay and subsequent staining procedures. […] Segmentation for the nuclei was determined based on grayscale levels (baseline range 100-300) and nuclear size. Averages and standard deviations were calculated for each replicate data set. Total SOX17 protein expression was reported as total intensity or integrated intensity, defined as total fluorescence of the cell multiplied by the area of the cell. […]

Turning to “9-Methyl-2,3,4,5,7,8,9,10-octahydro-16H-17,21-(azeno)-11,15-(metheno)pyrido[3,2-g][1,3,5,9,13,17]hexaazacyclotricosin-6(1H)-one [Compound 39]”, the “SOX17 expression, % of positive control response” value by setting is: (with EGF+FGF4+PDGF-A+VEGF, no activin A) 31 % of positive control response; (with EGF+FGF4+PDGF-AB, no activin A) 68 % of positive control response; (with EGF+FGF4, no activin A) 77 % of positive control response.
